Results on eleven compounds are retold here after patent US12540143B2, “Methods and compositions for targeted protein degradation” (Ranok Therapeutics (Hangzhou) Co. Ltd., priority 2019, dated 2026).

Structures can show the parent of a compound that is named as a salt.

This assay deals with MV4-11 cells. Put plainly: MV4-11 Cytotoxicity Assay. The class given is cell-based, human. As to conditions: Homo sapiens, MV4-11; 72 hr, CCK-8; read-out: MV4-11 cytotoxicity.
In the case of `CCc1cc(-c2nnc(O)n2-c2ccc(CN3CCN(CC4CCN(CC[C@@H]5N=C(c6ccc(Cl)cc6)c6c(sc(C)c6C)-n6c(C)nnc65)CC4)CC3)cc2)c(O)cc1O` [Compound 2, 4-(4-(4-((4-((1-(2-((6S)-4-(4-chlorophenyl)-2,3,9-trimethyl-6H-thieno[3,2-f][1,2,4]triazolo[4,3-a][1,4]diazepin-6-yl)ethyl)piperidin-4-yl)methyl)piperazin-1-yl)methyl)phenyl)-5-hydroxy-4H-1,2,4-triazol-3-yl)-6-ethylbenzene-1,3-diol, trifluoroacetic acid], the IC50 was 100 to 1000 nM.

For the compound `Cc1sc2c(c1C)C(c1ccc(Cl)cc1)=N[C@@H](CC(=O)N[C@H](C)c1cccc(CN3CCC(Cc4ccc(-n5c(O)nnc5-c5cc(C(C)C)c(O)cc5O)cc4)CC3)c1)c1nnc(C)n1-2` [Compound 81, 2-((S)-4-(4-chlorophenyl)-2,3,9-trimethyl-6H-thieno[3,2-f][1,2,4]triazolo[4,3-a][1,4]diazepin-6-yl)-N—((R)-1-(3-((4-(4-(3-(2,4-dihydroxy-5-isopropylphenyl)-5-hydroxy-4H-1,2,4-triazol-4-yl)benzyl)piperidin-1-yl)methyl)phenyl)ethyl)acetamide, trifluoroacetic acid], the IC50 was below 100 nM.

Turning to `Cc1sc2c(c1C)C(c1ccc(Cl)cc1)=N[C@@H](CC(=O)N1CCC(CN3CCN(Cc4ccc(-n5c(C(=O)NC(C)C)nnc5-c5cc(C(C)C)c(O)cc5O)cc4)CC3)CC1)c1nnc(C)n1-2` [Compound 108, (S)-4-(4-((4-((1-(2-(4-(4-chlorophenyl)-2,3,9-trimethyl-6H-thieno[3,2-f][1,2,4]triazolo[4,3-a][1,4]diazepin-6-yl)acetyl)piperidin-4-yl)methyl)piperazin-1-yl)methyl)phenyl)-5-(2,4-dihydroxy-5-isopropylphenyl)-N-isopropyl-4H-1,2,4-triazole-3-carboxamide, trifluoroacetic acid], the IC50 was 100 to 1000 nM.

For `Cc1sc2c(c1C)C(c1ccc(Cl)cc1)=N[C@@H](CC(=O)NCC(=O)NCCOc1ccc(-n3c(O)nnc3-c3cc(C(C)C)c(O)cc3O)cc1)c1nnc(C)n1-2` [Compound 54, (S)-2-(4-(4-chlorophenyl)-2,3,9-trimethyl-6H-thieno[3,2-f][1,2,4]triazolo[4,3-a][1,4]diazepin-6-yl)-N-(2-((2-(4-(3-(2,4-dihydroxy-5-isopropylphenyl)-5-hydroxy-4H-1,2,4-triazol-4-yl)phenoxy)ethyl)amino)-2-oxoethyl)acetamide], the IC50 lay in the range of 100 to 1000 nM.

Consider `Cc1sc2c(c1C)C(c1ccc(Cl)cc1)=N[C@@H](CC(=O)N1CCC(CN3CCN(Cc4ccc(-n5c(C(N)=O)nnc5-c5cc(C(C)C)c(O)cc5O)cc4)CC3)CC1)c1nnc(C)n1-2` [Compound 109, (S)-4-(4-((4-((1-(2-(4-(4-chlorophenyl)-2,3,9-trimethyl-6H-thieno[3,2-f][1,2,4]triazolo[4,3-a][1,4]diazepin-6-yl)acetyl)piperidin-4-yl)methyl)piperazin-1-yl)methyl)phenyl)-5-(2,4-dihydroxy-5-isopropylphenyl)-4H-1,2,4-triazole-3-carboxamide, trifluoroacetic acid], for which the IC50 was below 100 nM.

For `Cc1cc(-c2nnc(C(=O)NCCN3CCCCC3)n2-c2ccc(CN3CCN(CC4CCN(C(=O)C[C@@H]5N=C(c6ccc(Cl)cc6)c6c(sc(C)c6C)-n6c(C)nnc65)CC4)CC3)cc2)c(O)cc1O` [Compound 124, (S)-4-(4-((4-((1-(2-(4-(4-chlorophenyl)-2,3,9-trimethyl-6H-thieno[3,2-f][1,2,4]triazolo[4,3-a][1,4]diazepin-6-yl)acetyl)piperidin-4-yl)methyl)piperazin-1-yl)methyl)phenyl)-5-(2,4-dihydroxy-5-methylphenyl)-N-(2-(piperidin-1-yl)ethyl)-4H-1,2,4-triazole-3-carboxamide, trifluoroacetic acid], the IC50 is below 100 nM.

In the case of `CCc1cc(-c2nnc(O)n2-c2ccc(CN3CCN(CC4CCN(C(=O)C[C@@H]5N=C(c6ccc(Cl)cc6)c6c(sc(C)c6C)-n6c(C)nnc65)CC4)CC3)cc2)c(O)cc1O` [Compound 10, (S)-2-(4-(4-chlorophenyl)-2,3,9-trimethyl-6H-thieno[3,2-f][1,2,4]triazolo[4,3-a][1,4]diazepin-6-yl)-1-(4-((4-(4-(3-(5-ethyl-2,4-dihydroxyphenyl)-5-hydroxy-4H-1,2,4-triazol-4-yl)benzyl)piperazin-1-yl)methyl)piperidin-1-yl)ethan-1-one hydrochloride], the IC50 was below 100 nM.

As to `Cc1sc2c(c1C)C(c1ccc(Cl)cc1)=N[C@@H](CC(=O)NCCOCCOc1ccc(-n3c(S)nnc3-c3cc(C(C)C)c(O)cc3O)cc1)c1nnc(C)n1-2` [Compound 33, (S)-2-(4-(4-chlorophenyl)-2,3,9-trimethyl-6H-thieno[3,2-f][1,2,4]triazolo[4,3-a][1,4]diazepin-6-yl)-N-(2-(2-(4-(3-(2,4-dihydroxy-5-isopropylphenyl)-5-mercapto-4H-1,2,4-triazol-4-yl)phenoxy)ethoxy)ethyl)acetamide], the IC50 lay in the range of 100 to 1000 nM.

As to `Cc1sc2c(c1C)C(c1ccc(Cl)cc1)=NC(CC(=O)N[C@H](C)c1ccc(CN3CCN(Cc4ccc(-n5c(O)nnc5-c5cc(C(C)C)c(O)cc5O)cc4)CC3)cc1)c1nnc(C)n1-2` (stereo in doubt) [Compound 70, 2-((6S)-4-(4-chlorophenyl)-2,3,9-trimethyl-6H-thieno[3,2-f][1,2,4]triazolo[4,3-a][1,4]diazepin-6-yl)-N—((R)-1-(4-((4-(4-(3-(2,4-dihydroxy-5-isopropylphenyl)-5-hydroxy-4H-1,2,4-triazol-4-yl)benzyl)piperazin-1-yl)methyl)phenyl)ethyl)acetamide, trifluoroacetic acid], the IC50 was below 100 nM.

On to `CCNC(=O)c1nnc(-c2cc(C(C)C)c(O)cc2O)n1-c1ccc(CC2CCN(CC3CCN(C(=O)C[C@@H]4N=C(c5ccc(Cl)cc5)c5c(sc(C)c5C)-n5c(C)nnc54)CC3)CC2)cc1` [Compound 90, (S)-4-(4-((1-((1-(2-(4-(4-chlorophenyl)-2,3,9-trimethyl-6H-thieno[3,2-f][1,2,4]triazolo[4,3-a][1,4]diazepin-6-yl)acetyl)piperidin-4-yl)methyl)piperidin-4-yl)methyl)phenyl)-5-(2,4-dihydroxy-5-isopropylphenyl)-N-ethyl-4H-1,2,4-triazole-3-carboxamide], for which the IC50 was below 100 nM.

On to `Cc1sc2c(c1C)C(c1ccc(Cl)cc1)=N[C@@H](CC(=O)NCc1ccc(CN3CCC(Cc4ccc(-n5c(C(=O)NCC(F)(F)F)nnc5-c5cc(C(C)C)c(O)cc5O)cc4)CC3)cc1)c1nnc(C)n1-2` [Compound 96, (S)-4-(4-((1-(4-((2-(4-(4-chlorophenyl)-2,3,9-trimethyl-6H-thieno[3,2-f][1,2,4]triazolo[4,3-a][1,4]diazepin-6-yl)acetamido)methyl)benzyl)piperidin-4-yl)methyl)phenyl)-5-(2,4-dihydroxy-5-isopropylphenyl)-N-(2,2,2-trifluoroethyl)-4H-1,2,4-triazole-3-carboxamide, trifluoroacetic acid], for which the IC50 was below 100 nM.
